What was measured:
[1] = biological target: T1, glucocorticoid receptor (GR) (Homo sapiens, UniProt P04150); assay: Immunoblot of GR in 22Rv1 cells; format: cell-based; settings: 22Rv1, 24 hours, up to 10 μM
T1 construct: endogenous in cells; host or cells: 22Rv1
T1 sequence (P04150 1-777): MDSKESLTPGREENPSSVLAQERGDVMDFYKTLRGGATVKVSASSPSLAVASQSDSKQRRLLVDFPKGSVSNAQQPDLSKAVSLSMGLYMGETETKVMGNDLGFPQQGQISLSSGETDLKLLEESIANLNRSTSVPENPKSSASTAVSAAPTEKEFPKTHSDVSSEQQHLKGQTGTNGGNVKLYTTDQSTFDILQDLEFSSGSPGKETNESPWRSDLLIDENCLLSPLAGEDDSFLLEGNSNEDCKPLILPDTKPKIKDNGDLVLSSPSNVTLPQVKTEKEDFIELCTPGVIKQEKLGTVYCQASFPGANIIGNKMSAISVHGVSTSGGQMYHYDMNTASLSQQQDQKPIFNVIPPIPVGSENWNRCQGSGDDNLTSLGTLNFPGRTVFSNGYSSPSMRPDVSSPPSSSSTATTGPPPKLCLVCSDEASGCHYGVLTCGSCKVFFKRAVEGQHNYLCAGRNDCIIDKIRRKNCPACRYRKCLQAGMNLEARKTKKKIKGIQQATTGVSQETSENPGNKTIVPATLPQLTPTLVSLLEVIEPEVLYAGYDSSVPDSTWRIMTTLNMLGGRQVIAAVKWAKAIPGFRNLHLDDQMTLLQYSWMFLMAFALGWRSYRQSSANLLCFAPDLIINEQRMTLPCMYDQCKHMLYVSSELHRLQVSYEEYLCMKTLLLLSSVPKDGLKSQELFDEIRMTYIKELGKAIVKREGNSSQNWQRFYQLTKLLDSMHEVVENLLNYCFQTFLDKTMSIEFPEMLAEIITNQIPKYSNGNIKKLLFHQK
Experimental: Cell Culture. Human CaP cell lines, LNCaP, 22Rv1, VCaP, PC3, and DU145 are obtained from the American Type Culture Collection (ATCC) and maintained in the standard culture media: RPMI-1640 supplemented with 10% fetal bovine serum (FBS). LNCaP, 22Rv1, and VCaP are androgen-responsive cell lines, while PC3 and DU145 are not. To establish SAT resistant CaP cell lines, LNCaP, 22Rv1, and VCaP are treated continuously with 10-50 μM abiraterone, apalutamide, darolutamide, or enzalutamide. After 3-6 months, stable cell lines are established and designated as LNCaP-Abi^R, LNCaP-Apa^R, LNCaP-Daro^R, LNCaP-Enz^R, VCaP-Abi^R, VCaP-Apa^R, VCaP-Daro^R, VCaP-Enz^R, 22Rv1-Abi^R, 22Rv1-Apa^R, 22Rv1-Daro^R and 22Rv1-Enz^R. Unless otherwise specified, the standard culture media for these SAT-resistant cell lines included 10 μM of their respective SAT. For the proteasome inhibitor study, the inhibitors MG132 and Epoxomicin are used. The E3 ligase inhibitors Heclin, Nutlin 3a, Thalidomide, and VH298 are used. […] Mycoplasma contamination is also assessed using a PCR based detection system.
Immunoblot Analysis. […] Cell lysates are then centrifuged and protein in the supernatant is quantified. […] Following the incubation with appropriate secondary antibody, immunoblots are analyzed using SuperSignal West Femto Maximum Sensitivity Substrate (ThermoFisher).

[2] = tested on: LNCaP; assay: LNCaP cell proliferation; format: cell-based, human; settings: androgen-responsive cell line; 1 μM
Experimental: The human prostate cancer cell line, 22Rv1 has been reported to express a high level of AR-V7. Thus, 22Rv1 was seeded at 50,000 cells/well on a 24-well plate in quadruplicates and treated with test compound in concentrations ranging up to 20 μM for four days. Standard culture media was RPMI-1640 supplemented with 10% fetal bovine serum. The test compound initially was dissolved in DMSO at 50 mM. This stock solution was then diluted as needed for the indicated concentrations. At the end of the four-day period, cells were harvested using 1% trypsin and counted using an automated cell counter.
Cell Culture. Human CaP cell lines, LNCaP, 22Rv1, VCaP, PC3, and DU145 are obtained from the American Type Culture Collection (ATCC) and maintained in the standard culture media: RPMI-1640 supplemented with 10% fetal bovine serum (FBS). LNCaP, 22Rv1, and VCaP are androgen-responsive cell lines, while PC3 and DU145 are not. To establish SAT resistant CaP cell lines, LNCaP, 22Rv1, and VCaP are treated continuously with 10-50 μM abiraterone, apalutamide, darolutamide, or enzalutamide. […] Mycoplasma contamination is also assessed using a PCR based detection system.

[3] = tested on: 22Rv1 cells; assay: Apoptosis assay (annexin-V, TUNEL) in 22Rv1; format: cell-based, human; settings: 22Rv1, 1 μM
Experimental: Apoptosis Assay. An apoptosis assay is carried out using the Thermo Fisher ApoDETECT Annexin V-FITC kit following the protocol recommended by the vendor. […] Then, fixed cells are incubated with Annexin V-FITC in PBS solution for 30 minutes at room temperature. After washing three times with PBS, cells are treated with 300 nM DAPI in PBS for 5 minutes at room temperature. Finally, after washing three times with PBS, mounting solution is added and the cells are visualized using immunofluorescence microscopy. Next, a TUNEL assay is performed using Promega DeadEnd Fluorometric TUNEL system. After treatment with Test Compound and fixation as described above in the Annexin-V experiment, 100 μl of equilibration buffer is incubated for 10 min. Then, 50 μl of TdT reaction mix is added and incubated for 60 min at 37° C. in a humidified chamber. Finally, stop solution is added and samples are mounted on slides using mounting medium. To assess non-specific cytotoxicity, an LDH assay kit is used.

Cc1ncsc1-c1ccc([C@H](C)NC(=O)[C@@H]2C[C@@H](O)CN2C(=O)[C@@H](NC(=O)CCCCNC(=O)COc2c(-c3csc(N4CCOCC4)n3)ccc(F)c2F)C(C)(C)C)cc1 [Example 16, (2S,4R)-1-((S)-2-(5-(2-(2,3-difluoro-6-(2-morpholinothiazol-4-yl)phenoxy)acetamido)pentanamido)-3,3-dimethylbutanoyl)-4-hydroxy-N-((S)-1-(4-(4-methylthiazol-5-yl)phenyl)ethyl)pyrrolidine-2-carboxamide]
effect on expression level of glucocorticoid receptor (GR) [1]: no visible effect | effect on proliferation of LNCaP [2]: inhibits the proliferation | apoptosis, TUNEL assay [3]: confirmed | apoptosis, annexin-V assay ([3]; 0 to 48 hours, starts approximately three hours after treatment, increases through 48 hours): increase in annexin-V staining
